Literature values in patent US20240122889A1, “DRY POWDER COMPOSITIONS OF TREPROSTINIL PRODRUGS AND METHODS OF USE THEREOF” (Insmed Incorporated, priority 0001, published 2024).

Tested on: conscious male guinea pigs

- Threshold dose that causes cough (inhaled TRE given by nebulization): 1.2 μg TRE/kg body weight
- Timing of cough (nebulized, time of exposure): ≤ 10 min
Compound: CCCCC[C@H](O)CC[C@@H]1[C@H]2Cc3cccc(OCC(=O)O)c3C[C@H]2C[C@H]1O [TRE, Treprostinil]
